Data as given in patent US20070142392A1, “Uses of rifamycins” (ActivBiotics, Inc., priority 2005, published 2007).
≈ marks a conversion by molar mass, not a printed value.

Tests used:
S. aureus [1] = assay: minimal bactericidal concentration in the stationary growth phase (MBCstat); type: cell-based; conditions: Staphylococcus aureus, 1% glucose PBS pH 7.4 with 4% Muller Hinton Broth
Description: FIG. 2A is a schematic illustration showing the peak drug concentration of Compound 86 (1.13 μg/ml) in cage fluid from non-infected animals after single dose of 12.5 mg/kg. […] In this medium, bacterial counts remained stable in the absence of antibacterial agents for >36 hours.
In this medium, bacterial counts remained stable in the absence of antibacterial agents for >36 hours.
The minimal bactericidal concentration in the stationary growth phase (MBCstat) was determined by using overnight bacterial cultures which were centrifuged and resuspended in medium containing 1% glucose supplemented phosphate buffered saline (PBS) pH 7.4 with 4% Muller Hinton Broth (Zimmerli et al., J Antimicrob. Chemother. 33:959-967 (1994)). In this medium, bacterial counts remained stable in the absence of antibacterial agents for >36 hours.

H. flu = type: cell-based
C. trachomatis = assay: MIC values, C. trachomatis (Table 2); type: cell-based
S. aureus [2] = assay: MIC values, S. aureus (Tables 1-4); type: cell-based
E. faecalis = assay: MIC values, E. faecalis (Tables 1-4); type: cell-based; conditions: for MIC F. faecalis: Table 2
S. pneumo. = assay: MIC values, S. pneumo. (Tables 1-4); type: cell-based
E. coli = assay: MIC values, E. coli (Tables 1-4); type: cell-based
in vivo = conditions: albino, guinea pig, ip, 5 mg/kg
Description: For pharmacokinetic studies, non-infected animals were used. […] Teflon tissue cages were implanted into the flanks of guinea pigs. For pharmacokinetic studies, non-infected animals were used.

Row | SMILES | MBC (S. aureus [1]) | MIC H. flu (H. flu) | MIC C. trachomatis (C. trachomatis) | MIC S. aureus (S. aureus [2]) | MIC F. faecalis (E. faecalis) | MIC S. pneumo. (S. pneumo.) | MIC E. coli (E. coli) | Tmax (in vivo) | concentration at 12 h (in vivo) | MIC E. faecalis (E. faecalis)
1 | CO[C@H]1/C=C/O[C@@]2(C)Oc3c(C)c(O)c4c(=O)c(c5oc6cc(N7CC8CCC(C7)N8C)cc(O)c6nc-5c4c3C2=O)NC(=O)/C(C)=C\C=C\[C@H](C)[C@H](O)[C@@H](C)[C@@H](O)[C@@H](C)[C@H](OC(C)=O)[C@@H]1C [Compound 151] | 0.156 µg/mL (≈ 169 nM) | – | – | – | – | – | – | – | – | –
2 | CO[C@H]1/C=C/O[C@@]2(C)Oc3c(C)c(O)c4c(=O)c(c5oc6c7c(cc(O)c6nc-5c4c3C2=O)N(C)CCN7C)NC(=O)/C(C)=C\C=C\[C@H](C)[C@H](O)[C@@H](C)[C@@H](O)[C@@H](C)[C@H](O)[C@@H]1C [Compound 81] | – | 2 µg/mL (≈ 2370 nM) | 1 ng/mL (≈ 1.19 nM) | 0.5 µg/mL (≈ 593 nM) | 1 µg/mL (≈ 1190 nM) | 60 ng/mL (≈ 71.2 nM) | 8 µg/mL (≈ 9490 nM) | – | – | –
3 | C[C@H]1COc2c(N3CCN(C)CC3)c(F)cc3c(=O)c(C(=O)O)cn1c23 [Levofloxacin, levofloxacin] | 40 µg/mL (≈ 111000 nM) | – | – | – | – | – | – | 2 h | 10 ± 10 ng/mL | –
4 | CO[C@H]1/C=C/O[C@@]2(C)Oc3c(C)c(O)c4c(=O)c(c5oc6c7c(cc(O)c6nc-5c4c3C2=O)N(C)CCCN7C)NC(=O)/C(C)=C\C=C\[C@H](C)[C@H](O)[C@@H](C)[C@@H](O)[C@@H](C)[C@H](O)[C@@H]1C [Compound 83] | – | 2 µg/mL (≈ 2330 nM) | 1 ng/mL (≈ 1.17 nM) | 0.12 µg/mL (≈ 140 nM) | 1 µg/mL (≈ 1170 nM) | 0.12 ng/mL (≈ 0.14 nM) | >8 µg/mL | – | – | –
5 | CO[C@H]1/C=C/O[C@@]2(C)Oc3c(C)c(O)c4c(=O)c(c5oc6cc(N7CC(N(C)C)C7)cc(O)c6nc-5c4c3C2=O)NC(=O)/C(C)=C\C=C\[C@H](C)[C@H](O)[C@@H](C)[C@@H](O)[C@@H](C)[C@H](OC(C)=O)[C@@H]1C [Compound 152] | 0.469 µg/mL (≈ 522 nM) | – | – | – | – | – | – | – | – | –
6 | CO[C@H]1/C=C/O[C@@]2(C)Oc3c(C)c(O)c4c(=O)c(c5oc6c7c(cc(O)c6nc-5c4c3C2=O)N(C)CCCN7C)NC(=O)/C(C)=C\C=C\[C@H](C)[C@H](O)[C@@H](C)[C@@H](O)[C@@H](C)[C@H](OC(C)=O)[C@@H]1C [Compound 82] | – | 2 µg/mL (≈ 2220 nM) | 0.064 ng/mL (≈ 0.0712 nM) | 0.06 µg/mL (≈ 66.7 nM) | 4 µg/mL (≈ 4450 nM) | 8 ng/mL (≈ 8.9 nM) | >8 µg/mL | – | – | –
7 | CO[C@H]1/C=C/O[C@@]2(C)Oc3c(C)c(O)c4c(=O)c(c5oc6c7c(cc(O)c6nc-5c4c3C2=O)N(C(C)C)CCN7C(C)C)NC(=O)/C(C)=C\C=C\[C@H](C)[C@H](O)[C@@H](C)[C@@H](O)[C@@H](C)[C@H](OC(C)=O)[C@@H]1C [Compound 84] | – | 2 µg/mL (≈ 2130 nM) | 10 ng/mL (≈ 10.6 nM) | 0.06 µg/mL (≈ 63.8 nM) | 4 µg/mL (≈ 4250 nM) | 8 ng/mL (≈ 8.5 nM) | >8 µg/mL | – | – | –
8 | CO[C@H]1/C=C/O[C@@]2(C)Oc3c(C)c(O)c4c(=O)c(c5oc6c7c(cc(O)c6nc-5c4c3C2=O)N(C)CCN7C)NC(=O)/C(C)=C\C=C\[C@H](C)[C@H](O)[C@@H](C)[C@@H](O)[C@@H](C)[C@H](OC(C)=O)[C@@H]1C [Compound 80] | – | 1 µg/mL (≈ 1130 nM) | 0.064 ng/mL (≈ 0.0723 nM) | 0.008 µg/mL (≈ 9.04 nM) | 1 µg/mL (≈ 1130 nM) | 0.12 ng/mL (≈ 0.136 nM) | 8 µg/mL (≈ 9040 nM) | – | – | –
9 | CCOC(=O)NC1CCN(c2cc(O)c3nc4c5c6c7c(C)c(O)c5c(=O)c(c-4oc3c2)NC(=O)/C(C)=C\C=C\[C@H](C)[C@H](O)[C@@H](C)[C@@H](O)[C@@H](C)[C@H](O)[C@H](C)[C@@H](OC)/C=C/O[C@@](C)(O7)C6=O)CC1 [Compound 3] | – | 0.25 µg/mL (≈ 269 nM) | – | 0.03 µg/mL (≈ 32.3 nM) | – | 0.5 ng/mL (≈ 0.538 nM) | 4 µg/mL (≈ 4310 nM) | – | – | 0.12 µg/mL (≈ 129 nM)
10 | COC1C=COC2(C)Oc3c(C)c(O)c4c(=O)c(c5oc6cc(N7CC8C(C7)C8N(C)C)cc(O)c6nc-5c4c3C2=O)NC(=O)C(C)=CC=CC(C)C(O)C(C)C(O)C(C)C(O)C1C (stereo not shown) [Compound 54] | – | 0.25 µg/mL (≈ 283 nM) | – | 0.008 µg/mL (≈ 9.06 nM) | – | 0.5 ng/mL (≈ 0.566 nM) | >8 µg/mL | – | – | 2 µg/mL (≈ 2260 nM)
11 | CO[C@H]1/C=C/O[C@@]2(C)Oc3c(C)c(O)c4c(=O)c(c5oc6cc(N7CCC(NC(=O)N8CCC(NC(=O)SC)CC8)CC7)cc(O)c6nc-5c4c3C2=O)NC(=O)/C(C)=C\C=C\[C@H](C)[C@H](O)[C@@H](C)[C@@H](O)[C@@H](C)[C@H](OC(C)=O)[C@@H]1C [Compound 49] | – | 2 µg/mL (≈ 1820 nM) | – | 0.06 µg/mL (≈ 54.6 nM) | – | 0.5 ng/mL (≈ 0.455 nM) | >8 µg/mL | – | – | 8 µg/mL (≈ 7280 nM)
12 | CO[C@H]1/C=C/O[C@@]2(C)Oc3c(C)c(O)c4c(=O)c(c5oc6cc(N7CCC(NC(C)=O)CC7)cc(O)c6nc-5c4c3C2=O)NC(=O)/C(C)=C\C=C\[C@H](C)[C@H](O)[C@@H](C)[C@@H](O)[C@@H](C)[C@H](OC(C)=O)[C@@H]1C [Compound 44] | – | 0.25 µg/mL (≈ 266 nM) | – | 0.06 µg/mL (≈ 63.8 nM) | – | 8 ng/mL (≈ 8.5 nM) | >8 µg/mL | – | – | 2 µg/mL (≈ 2130 nM)
13 | CO[C@H]1/C=C/O[C@@]2(C)Oc3c(C)c(O)c4c(=O)c(c5oc6cc(N7CCC(NC(=O)N8CCN(C)CC8)CC7)cc(O)c6nc-5c4c3C2=O)NC(=O)/C(C)=C\C=C\[C@H](C)[C@H](O)[C@@H](C)[C@@H](O)[C@@H](C)[C@H](OC(C)=O)[C@@H]1C [Compound 50] | – | 0.5 µg/mL (≈ 488 nM) | – | 0.03 µg/mL (≈ 29.3 nM) | – | 0.12 ng/mL (≈ 0.117 nM) | >8 µg/mL | – | – | 4 µg/mL (≈ 3900 nM)
14 | COC1C=COC2(C)Oc3c(C)c(O)c4c(=O)c(c5oc6cc(N7CC8CCCNC8C7)cc(O)c6nc-5c4c3C2=O)NC(=O)C(C)=CC=CC(C)C(O)C(C)C(O)C(C)C(OC(C)=O)C1C (stereo not shown) [Compound 5] | – | 2 µg/mL (≈ 2160 nM) | – | 0.015 µg/mL (≈ 16.2 nM) | – | 0.25 ng/mL (≈ 0.27 nM) | 8 µg/mL (≈ 8650 nM) | – | – | 0.5 µg/mL (≈ 541 nM)
15 | COC1C=COC2(C)Oc3c(C)c(O)c4c(=O)c(c5oc6cc(N7CC8CCCN(C(C)=O)C8C7)cc(O)c6nc-5c4c3C2=O)NC(=O)C(C)=CC=CC(C)C(O)C(C)C(O)C(C)C(O)C1C (stereo not shown) [Compound 46] | – | 0.5 µg/mL (≈ 541 nM) | – | 0.004 µg/mL (≈ 4.32 nM) | – | 0.06 ng/mL (≈ 0.0649 nM) | >8 µg/mL | – | – | 2 µg/mL (≈ 2160 nM)
16 | CO[C@H]1/C=C/O[C@@]2(C)Oc3c(C)c(O)c4c(=O)c(c5oc6cc(N7CC8CCC(C7)N8)cc(O)c6nc-5c4c3C2=O)NC(=O)/C(C)=C\C=C\[C@H](C)[C@H](O)[C@@H](C)[C@@H](O)[C@@H](C)[C@H](OC(C)=O)[C@@H]1C [Compound 145] | – | 2 µg/mL (≈ 2200 nM) | – | 0.008 µg/mL (≈ 8.78 nM) | – | 0.12 ng/mL (≈ 0.132 nM) | >8 µg/mL | – | – | 1 µg/mL (≈ 1100 nM)
17 | COC1C=COC2(C)Oc3c(C)c(O)c4c(=O)c(c5oc6cc(N7CC8CCCN(C(C)=O)C8C7)cc(O)c6nc-5c4c3C2=O)NC(=O)C(C)=CC=CC(C)C(O)C(C)C(O)C(C)C(O)C1C (stereo not shown) [Compound 150] | – | 0.5 µg/mL (≈ 541 nM) | – | 0.004 µg/mL (≈ 4.32 nM) | – | 0.06 ng/mL (≈ 0.0649 nM) | >8 µg/mL | – | – | 2 µg/mL (≈ 2160 nM)
18 | CO[C@H]1/C=C/O[C@@]2(C)Oc3c(C)c(O)c4c(=O)c(c5oc6cc(N7CCC(NC(=O)OCC(C)C)CC7)cc(O)c6nc-5c4c3C2=O)NC(=O)/C(C)=C\C=C\[C@H](C)[C@H](O)[C@@H](C)[C@@H](O)[C@@H](C)[C@H](OC(C)=O)[C@@H]1C [Compound 13] | – | 2 µg/mL (≈ 2000 nM) | – | 0.008 µg/mL (≈ 8.01 nM) | – | 0.12 ng/mL (≈ 0.12 nM) | 4 µg/mL (≈ 4000 nM) | – | – | 0.5 µg/mL (≈ 500 nM)
